How the values were obtained:
[1] = tested on: kochia; assay: Test D preemergence; assay type: in vivo, Kochia scoparia; settings: Bassia scoparia, pre-emergence, scale 0-100, read-out: Plant response rating, Kochia
How it was run: (§1)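 Plant response is a visual score from 0 (no effect) to 100 (complete control) relative to controls. Plants were kept in a controlled growth environment for 7 to 21 days after spraying. Preemergence treatments went onto silt loam soil; postemergence ones onto 1- to 4-leaf seedlings.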

[2] = tested on: large (Lg) crabgrass; assay: Test E preemergence; assay type: in vivo, Digitaria sanguinalis; settings: for Crabgrass, Large plant response rating: scale 0 to 100 (0 no effect, 100 complete control); for Plant response rating, Crabgrass, Large: scale 0 to 100, 0 no effect, 100 complete control
How it was run: (§2)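 Compound in a non-phytotoxic solvent mixture with surfactant was applied preemergence to seeds in silt loam soil, or postemergence to plants 2 to 18 cm tall grown in peat-based potting medium. Plants were kept in a greenhouse for 14 to 21 days, then rated visually against untreated controls on a 0 (no effect) to 100 (complete control) scale.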

[3] = tested on: cocklebur; assay: Test E preemergence; assay type: in vivo, Xanthium strumarium; settings: for Cocklebur plant response rating: scale 0 to 100 (0 no effect, 100 complete control)
How it was run: as §2

[4] = tested on: lambsquarters; assay: Test E preemergence; assay type: in vivo, Chenopodium album; settings: for Lambsquarters plant response rating: scale 0 to 100 (0 no effect, 100 complete control); for Plant response rating, Lambsquarters: scale 0 to 100, 0 no effect, 100 complete control
How it was run: as §2

[5] = tested on: barnyardgrass; assay: Test C flooded paddy test; assay type: in vivo, Echinochloa crus-galli; settings: Flood, scale 0 to 100 (0 no effect, 100 complete control), 13 to 15 days
How it was run: (§3)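 Test compounds are applied straight into paddy water held 3 cm above the soil surface, with that flood maintained for the whole test. After 13 to 15 days in the greenhouse, each species is scored visually relative to controls.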

[6] = tested on: arrowleaf sida; assay: Test E preemergence; assay type: in vivo, Sida rhombifolia; settings: for Arrowleaf Sida plant response rating: scale 0 to 100 (0 no effect, 100 complete control); for Plant response rating, Arrowleaf Sida: scale 0 to 100, 0 no effect, 100 complete control
How it was run: as §2

[7] = tested on: Brazilian crabgrass; assay: Test E preemergence; assay type: in vivo, Digitaria horizontalis; settings: for Crabgrass, Brazil plant response rating: scale 0 to 100 (0 no effect, 100 complete control); for Plant response rating, Crabgrass, Brazil: scale 0 to 100, 0 no effect, 100 complete control
How it was run: as §2

[8] = tested on: barnyardgrass; assay: Test E preemergence; assay type: in vivo, Echinochloa crus-galli; settings: for Barnyardgrass plant response rating: scale 0 to 100 (0 no effect, 100 complete control); for Plant response rating, Barnyardgrass: scale 0 to 100, 0 no effect, 100 complete control
How it was run: as §2

[9] = tested on: wild mustard; assay: Test D preemergence; assay type: in vivo, Sinapis arvensis; settings: Brassica, pre-emergence, scale 0-100, read-out: Plant response rating, Mustard, Wild
How it was run: as §1

[10] = tested on: surinam grass; assay: Test E preemergence; assay type: in vivo, Brachiaria decumbens; settings: for Surinam Grass plant response rating: scale 0 to 100 (0 no effect, 100 complete control); for Plant response rating, Surinam Grass: scale 0 to 100, 0 no effect, 100 complete control
How it was run: as §2

[11] = tested on: sedge, umbrella; assay: Test C flooded paddy test; assay type: in vivo, Cyperus difformis; settings: Flood, scale 0 to 100 (0 no effect, 100 complete control), 13 to 15 days
How it was run: as §3

[12] = tested on: velvetleaf; assay: Test E preemergence; assay type: in vivo, Abutilon theophrasti; settings: for Velvetleaf plant response rating: scale 0 to 100 (0 no effect, 100 complete control); for Plant response rating, Velvetleaf: scale 0 to 100, 0 no effect, 100 complete control
How it was run: as §2

N#Cc1cccc(Oc2ncc(Br)cn2)c1-n1cc(C(F)(F)F)cn1 [Compound 59, 3-[(5-bromo-2-pyrimidinyl)oxy]-2-[4-(trifluoromethyl)-1H-pyrazol-1-yl]benzonitrile]
pest or weed control at 31 g/ha ([1]; 31 g ai/ha): 90%
pest or weed control at 62 g/ha ([1]; 62 g ai/ha): 80%
pest or weed control at 125 g/ha ([1]; 125 g ai/ha): 100%
pest or weed control at 250 g/ha ([1]; 250 g ai/ha): 100%
Crabgrass, Large plant response rating ([2]; 16 g ai/ha): 5
Crabgrass, Large plant response rating ([2]; 31 g ai/ha): 95
Crabgrass, Large plant response rating ([2]; 62 g ai/ha): 100
Plant response rating, Crabgrass, Large ([2]; 125 g ai/ha): 100
Plant response rating, Crabgrass, Large ([2]; 250 g ai/ha): 100
Cocklebur plant response rating ([3]; 31 g ai/ha): 0
Cocklebur plant response rating ([3]; 62 g ai/ha): 0
Plant response rating, Cocklebur ([3]; 250 g ai/ha, scale 0 to 100, 0 no effect, 100 complete control): 0
Lambsquarters plant response rating ([4]; 16 g ai/ha): 98
Lambsquarters plant response rating ([4]; 31 g ai/ha): 98
Lambsquarters plant response rating ([4]; 62 g ai/ha): 100
Plant response rating, Lambsquarters ([4]; 125 g ai/ha): 100
Plant response rating, Lambsquarters ([4]; 250 g ai/ha): 100
Plant response rating, Barnyardgrass ([5]; 31 g ai/ha): 0
Plant response rating, Barnyardgrass ([5]; 62 g ai/ha): 0
Plant response rating, Barnyardgrass ([5]; 125 g ai/ha): 30
Plant response rating, Barnyardgrass ([5]; 250 g ai/ha): 40
Arrowleaf Sida plant response rating ([6]; 16 g ai/ha, preemergence): 50
Arrowleaf Sida plant response rating ([6]; 31 g ai/ha, preemergence): 50
Plant response rating, Arrowleaf Sida ([6]; Preemergence, 62 g ai/ha): 75
Plant response rating, Arrowleaf Sida ([6]; preemergence, 125 g ai/ha): 100
Plant response rating, Arrowleaf Sida ([6]; preemergence, 250 g ai/ha): 100
Crabgrass, Brazil plant response rating ([7]; 16 g ai/ha): 80
Crabgrass, Brazil plant response rating ([7]; 31 g ai/ha): 100
Crabgrass, Brazil plant response rating ([7]; 62 g ai/ha): 100
Plant response rating, Crabgrass, Brazil ([7]; 125 g ai/ha): 100
Plant response rating, Crabgrass, Brazil ([7]; 250 g ai/ha): 100
Barnyardgrass plant response rating ([8]; 16 g ai/ha, preemergence): 0
Barnyardgrass plant response rating ([8]; 31 g ai/ha, preemergence): 20
Plant response rating, Barnyardgrass ([8]; Preemergence, 62 g ai/ha): 50
Plant response rating, Barnyardgrass ([8]; preemergence, 125 g ai/ha): 75
Plant response rating, Barnyardgrass ([8]; preemergence, 250 g ai/ha): 95
pest or weed control at 31 g/ha ([9]; 31 g ai/ha): 15%
pest or weed control at 62 g/ha ([9]; 62 g ai/ha): 100%
pest or weed control at 125 g/ha ([9]; 125 g ai/ha): 100%
pest or weed control at 250 g/ha ([9]; 250 g ai/ha): 100%
Surinam Grass plant response rating ([10]; 16 g ai/ha): 0
Surinam Grass plant response rating ([10]; 31 g ai/ha): 0
Surinam Grass plant response rating ([10]; 62 g ai/ha): 5
Plant response rating, Surinam Grass ([10]; 125 g ai/ha): 20
Plant response rating, Surinam Grass ([10]; 250 g ai/ha): 65
Plant response rating, Sedge, Umbrella ([11]; 31 g ai/ha): 60
Plant response rating, Sedge, Umbrella ([11]; 62 g ai/ha): 80
Plant response rating, Sedge, Umbrella ([11]; 125 g ai/ha): 90
Plant response rating, Sedge, Umbrella ([11]; 250 g ai/ha): 95
Velvetleaf plant response rating ([12]; 16 g ai/ha): 0
Velvetleaf plant response rating ([12]; 31 g ai/ha): 25
Velvetleaf plant response rating ([12]; 62 g ai/ha): 75
Plant response rating, Velvetleaf ([12]; 125 g ai/ha): 100
Plant response rating, Velvetleaf ([12]; 250 g ai/ha): 100

From US9695155B2, “Herbicidal substituted pyrimidinyloxy benzene compounds” (E. I. DU PONT DE NEMOURS AND COMPANY, priority 2013, dated 2017)
